Measured values from patent US5686477A, “5-(arloxymethyl)oxazolines” (Adir et Compagnie, priority 1994, dated 1997).

Assays:
[1] = target: imidazoline I1-receptors; assay: Binding to imidazoline I1-receptors, displacement of [3H]-clonidine (in vitro); details: [3H]-clonidine + 10 μM norepinephrine; bovine lateral reticular nucleus
Source text: (§1) EXAMPLE A: PROFILE OF BINDING TO IMIDAZOLINE I1 - AND I2 -RECEPTORS. (IN VITRO STUDY)
(§2) To measure in vitro the binding affinity of the compounds of the invention for I1 - and I2 -receptors, by determining the capacity of those compounds to displace specific radioligands of the imidazoline I1 - and I2 -receptors.
(§3) The following Table gives the radioligand used to label the receptor, the compound and the concentration selected to determine the non-specific fraction and the tissue selected.
(§4) Radioligand non specific
10 μM of cold clonidine

[2] = target: imidazoline I2-receptors; assay: Binding to imidazoline I2-receptors, displacement of [3H]-idazoxane (in vitro); details: [3H]-idazoxane + 10 μM norepinephrine; rabbit renal cortex
Source text: as §1, §2, §3, §4
10^-5 M rabbit renal cortex

[3] = pKa
[4] = dipole moment; format: physicochemical
[5] = log Po/w

| SMILES | Ki [1] | Ki [2] | pKa [3] | dipole moment ([4]; benzene) | dipole moment ([4]; dioxane) | logP [5] |
| --- | --- | --- | --- | --- | --- | --- |
| Cc1ccccc1OCC1CN=C(N)O1 (single isomer, unassigned) [Example 29, 5-[(2-METHYLPHENOXY)METHYL]-4,5-DIHYDRO-OXAZOL-2-YLAMINE] | 5.8 nM | 7500 nM |  |  |  |  |
| Cc1ccc(OCC2CN=C(N)O2)c(C)c1 (stereo not drawn) [Example 10, 5-[(2,4-DIMETHYLPHENOXY)METHYL]-4,5-DIHYDRO-OXAZOL-2-YLAMINE] | 160 nM | 3900 nM |  |  |  |  |
| Cc1ccccc1OCC1CN=C(N)O1 (racemic) [Example 1, 5-[(2-METHYLPHENOXY)METHYL]-4,5-DIHYDRO-OXAZOL-2-YLAMINE] | 8.5 nM | 920 nM | 8.54 | 1.80 D | 2.07 D | 1.69 |
| CCc1ccccc1OCC1CN=C(N)O1 (stereo not drawn) [Example 18, 5-[(2-ETHYLPHENOXY)METHYL]-4,5-DIHYDRO-OXAZOL-2-YLAMINE] | 100 nM | 1800 nM |  |  |  |  |
| Cc1ccccc1OCC1CN=C(N)O1 (single isomer, unassigned) [Example 28, 5-[(2-METHYLPHENOXY)METHYL]-4,5-DIHYDRO-OXAZOL-2-YLAMINE] | 370 nM | 13000 nM |  |  |  |  |
| NC1=NCC(COc2ccccc2F)O1 (stereo not drawn) [Example 20, 5-[(2-FLUOROPHENOXY)METHYL]-4,5-DIHYDRO-OXAZOL-2-YLAMINE] | 210 nM | 1300 nM |  |  |  |  |
| Cc1ccc(C)c(OCC2CN=C(N)O2)c1 (stereo not drawn) [Example 16, 5-[(2,5-DIMETHYLPHENOXY)METHYL]-4,5-DIHYDRO-OXAZOL-2-YLAMINE] | 85 nM | 1600 nM |  |  |  |  |

Now from value to compound, other results behind:

| Ki [1] | Ki [2] | SMILES | pKa [3] | dipole moment ([4]; benzene) | dipole moment ([4]; dioxane) | logP [5] |
| --- | --- | --- | --- | --- | --- | --- |
| 170 nM | 7700 nM | CC(=O)c1ccccc1OCC1CN=C(N)O1 (stereo not drawn) [Example 23, 5-[(2-ACETYLPHENOXY)METHYL]-4,5-DIHYDRO-OXAZOL-2-YLAMINE] |  |  |  |  |
| 57 nM | 2100 nM | Cc1cccc(C)c1OCC1CN=C(N)O1 (stereo not drawn) [Example 9, 5-[(2,6-DIMETHYLPHENOXY)METHYL]-4,5-DIHYDRO-OXAZOL-2-YLAMINE] |  |  |  |  |
| 500 nM | 3900 nM | NC1=NCC(COc2ccccc2[N+](=O)[O-])O1 (stereo not drawn) [Example 21, 5-[(2-NITROPHENOXY)METHYL]-4,5-DIHYDRO-OXAZOL-2-YLAMINE] |  |  |  |  |
| 120 nM | 2100 nM | CC(C)c1ccccc1OCC1CN=C(N)O1 (stereo not drawn) [Example 19, 5-[(2-ISOPROPYLPHENOXY)METHYL]-4,5-DIHYDRO-OXAZOL-2-YLAMINE] |  |  |  |  |
| 48 nM | 2400 nM | N#Cc1ccccc1OCC1CN=C(N)O1 (stereo not drawn) [Example 22, 5-[(2-CYANOPHENOXY)METHYL]-4,5-DIHYDRO-OXAZOL-2-YLAMINE] |  |  |  |  |
| 670 nM | 1400 nM | CCCNC1=NCC(COc2ccccc2C)O1 (stereo not drawn) [Example 26, N-n-PROPYL-N-[5-(2-METHYLPHENOXY)METHYL-4,5-DIHYDRO-OXAZOL-2-YL]AMINE] |  |  |  |  |
| 170 nM | 1000 nM | CCNC1=NCC(COc2ccccc2C)O1 (stereo not drawn) [Example 27, N-ETHYL-N-[5-(2-METHYLPHENOXY)METHYL-4,5-DIHYDRO-OXAZOL-2-YL]AMINE] |  |  |  |  |
| 64 nM | 450 nM | Cc1cccc(OCC2CN=C(N)O2)c1C (stereo not drawn) [Example 13, 5-[(2,3-DIMETHYLPHENOXY)METHYL]-4,5-DIHYDRO-OXAZOL-2-YLAMINE] |  |  |  |  |
| 120 nM | 1000 nM | Cc1cc(Cl)ccc1OCC1CN=C(N)O1 (stereo not drawn) [Example 17, 5-[(4-CHLORO-2-METHYLPHENOXY)METHYL]-4,5-DIHYDRO-OXAZOL-2-YLAMINE] |  |  |  |  |
